Measurements from US20040018528A1, “Novel biomarkers of tyrosine kinase inhibitor exposure and activity in mammals” (Sugen, Inc., priority 2002, published 2004).
Values joined by “and” are separate entries in the source; they are usually repeats but may differ in a detail not shown here. Identical values can stand only once. “Also recorded” adds a separate entry of the source.

Experiments:
VEGF/PLGF heterodimers = experiment: Hybrid ELISA for VEGF/PLGF heterodimers in patient plasma; format: in vivo, human; settings: Trial C
Description: Heterodimers of VEGF and PLGF have been reported in the scientific literature. To measure heterodimers, a hybrid ELISA assay was used, combining reagents from both the R&D Systems VEGF and PLGF ELISA kits (where VEGF antibodies are used in capture step and PLGF antibodies are used in detection step).

MIG = MIG plasma ELISA, Compound 1 Phase I trials; format: in vivo, human; settings: individual patients; in pg/mL (unit assumed)
Protocol: (§1) In Trials A and B, patients received Compound 1.
(§2) Data analysis was performed for each marker.

IP-10 = IP-10 plasma ELISA, Compound 1 Phase I trials; format: in vivo, human
Protocol: as §1, §2

I-TAC = I-TAC plasma ELISA, Compound 1 Phase I trials; format: in vivo, human
Protocol: as §1, §2

42 human cytokines = experiment: Antibody membrane array (RayBio Human Cytokine Array III) screen of patient plasma; format: in vivo; settings: plasma of one Trial B patient, confirmed by MIG ELISA
Protocol: All of the ELISA-based screening of candidate proteins were performed with commercially available ELISA kits; the kits for the biomarkers described in this report are all available from R&D Systems (Minneapolis, Minn.). A commercially available membrane array containing antibodies for the detection of 42 human cytokines was also used in screening of a patient's plasma samples before and after treatment. The antibody array used in cytokine screening (RayBio Human Cytokine Array III) was from RayBiotech (Norcross, Ga.).

HUVECs = experiment: 2D gel analysis of conditioned media of VEGF-stimulated HUVECs; format: cell-based, human; settings: HUVEC conditioned media; VEGF and compound 1 (1 uM) at 24 h; Run #1, Run #2
Protocol: Thawed conditioned media samples were precipitated with three volumes of acetone for 2 hours at −20° C., then centrifuged at 13000 RPM for 15 minutes. […] Protein was quantitated with Bio-Rad Protein Assay (cat#500-0006) using the microassay for cuvettes protocol.
Samples were diluted to 0.3 μg/μl with IEF Buffer containing 1% IPG Buffer pH 3-10 (Amersham). Eighteen centimeter IPG strips pH 3-10 (Amersham) were rehydrated with 120 μg sample (400 μL) under Drystrip Cover Fluid (Amersham) on the IPGphor (Amersham) at 20° C. for 18 hours. Strips were focused with the following program: 200 volts for 1 hour, ramped from 200 volts to 1000 volts over two hours, held at 1000 volts for 1 hour, ramped from 1000 volts to 8000 volts over 6 hours, then held at 8000 volts for 10 hours. […] Gels were over-layed with water-saturated butanol (Fisher), and left to polymerize at room temperature overnight.
Focused strips were equilibrated for ten minutes with gentle shaking in 10 milliliters Equilibration Buffer: 6 M Urea (Fisher), 50 mM tris-HCl pH 8.8 (Fisher), 30% glycerol (Fisher), 2% SDS (Fisher) with 1% dithiothreitol followed by ten minutes in Equilibration Buffer with 4% iodoacetamide.
The equilibrated strips were loaded onto the gel surfaces and sealed with hot agarose overlay solution containing 0.5% agarose in 50 mM tris-HCl pH 6.8, 2% SDS. […]

HUVEC = experiment: pro-MMP1 ELISA of HUVEC conditioned media; format: cell-based, human; settings: for Average pro-MMP1: HUVEC conditioned media
Protocol: Cells were propagated at 37° C. in a humidifed atmosphere of 5% CO2 using standard cell culture techniques. Cells were plated in 10-cm tissue culture plates at 8.5×10^5 cells/ml. After 6 hours the cells were quiesced by serum starvation overnight in starvation medium (EBM containing 0.5% FBS). […] Conditioned media was stored at −70° C. until subsequent analysis.
Reagents for human pro-Matrix Metalloproteinase 1 (pro-MMP-1) ELISA kits were obtained from R&D Systems, Inc. (Minneapolis, Minn.; catalog #DMP100). ELISAs were performed on conditioned media samples according to the manufacturers' instructions. The optical density of each well was determined using a universal microplate spectrophotometer (μQuant) from Bio-Tek Instruments, Inc. (Winooski, Vt.). KC-4 software from Bio-Tek Instruments, Inc. was used to extrapolate cytokine concentrations from the standard curves.

pro-MMP1 = pro-MMP1 levels in plasma of Study B patients; format: in vivo, human; settings: Study B patients after receiving compound
FLT3 ligand (FL) = experiment: FLT3 ligand plasma ELISA; format: in vivo, human
Protocol: Reagents for FLT3 ligand (FL) and IL-6 ELISA kits were obtained from R&D Systems, Inc. (Minneapolis, Minn.; catalog #s DFK00, Q6000). […] ELISAs were performed on patient plasma according to the manufacturers' instructions. The FL and CRP kits relied on a colorimetric readout; the optical density of each well was determined using a microplate spectrophotometer and data was analyzed using KC-4 software from Bio-Tek Instruments, Inc. The IL-6 kit was a chemiluminescent sandwich ELISA; luminescence values were determined on a microplate luminometer. SOFTmaxPRO software was used to extrapolate cytokine concentrations from the standard curves.

IL-6 = IL-6 plasma ELISA; format: in vivo, human; settings: patients, FIG. 26
Protocol: (§3) Reagents for FLT3 ligand (FL) and IL-6 ELISA kits were obtained from R&D Systems, Inc. (Minneapolis, Minn.; catalog #s DFK00, Q6000). C-reactive protein (CRP) (accession ID AAA 52075) ELISA kits were obtained from KMI Diagnostics (Minneapolis, Minn.; catalog #EU59131). ELISAs were performed on patient plasma according to the manufacturers' instructions. The FL and CRP kits relied on a colorimetric readout; the optical density of each well was determined using a microplate spectrophotometer and data was analyzed using KC-4 software from Bio-Tek Instruments, Inc. The IL-6 kit was a chemiluminescent sandwich ELISA; luminescence values were determined on a microplate luminometer. SOFTmaxPRO software was used to extrapolate cytokine concentrations from the standard curves.

C-reactive protein (CRP) = experiment: C-reactive protein plasma ELISA; format: in vivo, human; settings: patients, FIG. 27
Protocol: as §3

[1] = tested on: OB-cadherin 1 (cadherin 11); experiment: Immunohistochemistry of OB-cadherin 1 in Colo205 xenograft tumors; format: in vivo, mice; settings: 24 or 48 hours exposure, vs vehicle treated, IHC
Description: Colo205 human colon xenograft tumors were isolated and fixed in Streck Tissue Fixative (Streck Laboratories, Inc., La Vista, […].). Samples used in immunohistochemistry were sent out to BioPathology Sciences Medical Corporation (South San Francisco, Calif.) for paraffin embedding and sectioning.
A rabbit polyclonal antibody recognizing the cytoplasmic tail region of OB-cadherin 1 (cadherin 11) was purchased from Zymed Laboratories, Inc. (Zymed reagent #71-7600; South San Francisco, Calif.).
Sections (4-5 μm) stained using an automated immunohistochemistry system (Benchmark System, Ventana Medical Systems, Inc., Tucson, Ariz.). In brief, slides were deparaffinized using heat at 75° C. and Ventana's EZ Prep product (Ventana reagent #950-102). Antigen retrieval was performed by incubating the slides for 30 min with Ventana's CC2 product (Ventana reagent #950-123), a citrate-based solution with pH 6.0. Primary antibody (5 μg/ml) was incubated for 24 min at room temperature, followed by a secondary detection system, using biotinylated secondary antibody (Vector anti-rabbit secondary, BA-1000, at 2.5 μg/ml; Vector Laboratories, Burlingame, Calif.) with incubation time of 8 min. […] All samples analyzed for OB-cadherin 1 expression were also stained with the omission of primary antibody as a negative control.

[2] = patients checked for both proteins

In the case of `CCN(CC)CCNC(=O)c1c(C)[nH]c(C=C2C(=O)Nc3ccc(F)cc32)c1C` [Compound 1, 5-(5-Fluoro-2-oxo-1,2-dihydro-indol-3-ylidenemethyl)-2,4-dimethyl-1H-pyrrole-3-carboxylic acid (2-diethylamino-ethyl)-amide], the “patients tested with increase in plasma levels of VEGF/PLGF heterodimer” value (VEGF/PLGF heterodimers) is reported as 3 of 3, the “MIG plasma level, end C1 dosing” value (MIG) is reported as 138.56 and 739.71 and the “IP-10 plasma level, end C1 dosing” value (IP-10; individual patients, >500 = above highest standard) is reported as over 500. For the same molecule, the “patients with MIG and IP-10 induced in tandem” value (IP-10; [2]) was 6 of 6, the “I-TAC plasma level, end C1 dosing” value (I-TAC; individual patients, in pg/mL (unit assumed)) was >4000.0 and 212.26 and the “patients with MIG and I-TAC induced in tandem” value (I-TAC; [2]) was 5 of 5. The “level of MIG after treatment vs baseline” value (42 human cytokines) was “significantly higher”, the “Spot #1202 (pro-MMP-1) quantification, 2D gel” value (HUVECs) was 270 and 484.7 and the “Average pro-MMP1” value (HUVEC; 10 nM pre-treatment, 10 min post-VEGF) was 5.41 ng/mL. For the same molecule, the “Average pro-MMP1” value (HUVEC; 10 nM pre-treatment, 8 hr post-VEGF) was 14.93 ng/mL, the “Average pro-MMP1” value (HUVEC; 10 nM pre-treatment, 24 hr post-VEGF) was 70.21 ng/mL and the “Average pro-MMP1” value (HUVEC; 10 nM pre-treatment, 48 hr post-VEGF) was 135.35 ng/mL. For the same molecule, the “Average pro-MMP1” value (HUVEC; 100 nM pre-treatment, 10 min post-VEGF) was 5.78 ng/mL, the “Average pro-MMP1” value (HUVEC; 100 nM pre-treatment, 8 hr post-VEGF) was 12.75 ng/mL and the “Average pro-MMP1” value (HUVEC; 100 nM pre-treatment, 24 hr post-VEGF) was 50.26 ng/mL. For the same molecule, the “Average pro-MMP1” value (HUVEC; 100 nM pre-treatment, 48 hr post-VEGF) was 128.75 ng/mL, the “Average pro-MMP1” value (HUVEC; 1 uM pre-treatment, 10 min post-VEGF) was 5.04 ng/mL and the “Average pro-MMP1” value (HUVEC; 1 uM pre-treatment, 8 hr post-VEGF) was 14.48 ng/mL. For the same molecule, the “Average pro-MMP1” value (HUVEC; 1 uM pre-treatment, 24 hr post-VEGF) was 50.42 ng/mL, the “Average pro-MMP1” value (HUVEC; 1 uM pre-treatment, 48 hr post-VEGF) was 103.09 ng/mL and the “levels of pro-MMP1 in HUVEC conditioned media” value (HUVEC; VEGF-treated HUVEC, pre-incubation at 10 nM, 100 nM or 1 uM) was “decreased”. The “pro-MMP1 levels in plasma of patients” value (pro-MMP1) was “increased”, the “patients exhibiting an increase in FLT3 ligand (FL) concentration” value (FLT3 ligand (FL); 18 patients enrolled in Trial B, day 1 to day 28) was 100% and the “FLT3 ligand (FL) plasma level during treatment” value (FLT3 ligand (FL); expanded set of patients, FIG. 25) was “induced; also recorded: Dramatic induction”. For the same molecule, the “interleukin-6 (IL-6) plasma level during treatment” value (IL-6) was “induced”, the “C-reactive protein (CRP) plasma level during treatment” value (C-reactive protein (CRP)) was “induced” and the “protein expression of OB-cadherin 1 (cadherin 11)” value [1] was “up-regulated; also recorded: up-regulation”.
